Reference: article PMC5037631, “Identification and characterization of putative xylose and cellobiose transporters in Aspergillus nidulans” (Biotechnology for Biofuels, 2016)

Biological target: T1, CltA (formerly XtrG; CltA::GFP) (Aspergillus nidulans, UniProt Q5ATN3)
T1 construct: gene ANIA_08347; full-length ORF from cDNA, GFP fusion, expressed in S. cerevisiae SC9721 with N. crassa beta-glucosidase gh1-1; plasma membrane
Experiment: growth complementation of S. cerevisiae SC9721 gh1-1 on cellobiose
Type: cell-based
Details: 0.1-2 % cellobiose as sole carbon source, 30 °C; intracellular beta-glucosidase gh1-1 coexpressed

T1 sequence (Q5ATN3 entry or part of it): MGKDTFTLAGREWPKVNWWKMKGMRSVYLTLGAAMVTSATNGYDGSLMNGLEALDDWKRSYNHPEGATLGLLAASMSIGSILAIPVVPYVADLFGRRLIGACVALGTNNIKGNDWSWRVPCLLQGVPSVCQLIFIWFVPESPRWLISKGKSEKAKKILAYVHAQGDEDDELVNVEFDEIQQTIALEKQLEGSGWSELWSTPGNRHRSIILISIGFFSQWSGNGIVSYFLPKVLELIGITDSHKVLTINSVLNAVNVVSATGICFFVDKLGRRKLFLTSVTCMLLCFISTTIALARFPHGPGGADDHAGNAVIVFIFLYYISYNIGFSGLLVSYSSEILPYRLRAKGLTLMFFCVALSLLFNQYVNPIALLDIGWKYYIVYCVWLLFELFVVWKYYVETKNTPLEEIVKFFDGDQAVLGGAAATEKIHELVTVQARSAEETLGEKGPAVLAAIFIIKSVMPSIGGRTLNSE

OC[C@H]1O[C@@H](O[C@H]2[C@H](O)[C@@H](O)C(O)O[C@@H]2CO)[C@H](O)[C@@H](O)[C@@H]1O (stereo partly shown) [cellobiose]
growth complementation of S. cerevisiae SC9721 gh1-1 on cellobiose: CltA, and to a lesser extent CltB, is able to transport cellobiose
